These results are taken from ChEMBL document CHEMBL5236589, “Design and Structural Optimization of Orally Bioavailable SOS1 Inhibitors for the Treatment of KRAS-Driven Carcinoma” (J Med Chem, 2022).

pIC50: −log10 of the molar value. The source made the active and inactive calls. The rule behind the calls is not given here.

Data set [1] can be described thus: Inhibition of SOS1/KRAS G13D mutant protein-protein interaction in human DLD-1 cells assessed as ERK1/2 phosphorylation measured after 1 hr by homogeneous time-resolved fluorescence (HTRF) method. The format is cell-based. The following applies: DLD-1, 1 h.
Data set [2] is described as follows: Toxicity in BALB/c mouse xenografted with human MIA PaCa-2 cells harboring KRAS G12C mutant assessed as change in body weight at 50 mg/kg, po once a day measured for 16 days. The format is organism-based. The conditions noted are these: in vivo, 384 h, time 16 day. For orientation: A xenograft is tissue or cells of one species grown in another, often human tumour cells in immunodeficient mice.

Data set [3] relates to MIA PaCa-2. Briefly: In vivo antitumor activity against human MIA PaCa-2 cells harboring KRAS G12C mutant xenografted in BALB/c mouse assessed as reduction in tumor volume at 50 mg/kg, po once a day measured for 16 days relative to control. The format is functional. Also noted: scale not given: the % may be the effect or the level left. The conditions noted are these: time 16 day.

Data set [4] is described as follows: Toxicity in BALB/c mouse xenografted with human MIA PaCa-2 cells harboring KRAS G12C mutant assessed as mortality at 50 mg/kg, po once a day measured for 16 days. The format is organism-based. The conditions noted are these: in vivo, 384 h, time 16 day.
The nature of data set [5]: Half life in ICR mouse at 20 mg/kg, po by LC-MS/MS analysis. The conditions noted are these: in vivo; for t1/2: po, 20 mg/kg; for half-life: ICR. The format is ADME, organism-based.
Data set [6] in a line: Tmax in ICR mouse at 20 mg/kg, po by LC-MS/MS analysis. The format is ADME, organism-based. The following applies: in vivo.
A short description of data set [7]: Cmax in ICR mouse at 20 mg/kg, po by LC-MS/MS analysis. The format is ADME, organism-based. Also noted: dose 20 mg/kg, route po. The following applies: in vivo.
Data set [8] can be described thus: AUC in ICR mouse at 20 mg/kg, po by LC-MS/MS analysis. The format is ADME, organism-based. Also noted: dose 20 mg/kg, route po. The following applies: in vivo.
Data set [9] is described as follows: MRT in ICR mouse at 20 mg/kg, po by LC-MS/MS analysis. The format is ADME, organism-based. The conditions noted are these: in vivo.
Data set [10] in a line: Elimination rate constant in ICR mouse at 20 mg/kg, po by LC-MS/MS analysis. The format is ADME, organism-based. The conditions noted are these: in vivo; for Kel: po, 20 mg/kg; for k el: ICR.
For a further data set, the target named is SOS1-KRAS (Homo sapiens, UniProt Q07889). Briefly: Inhibition of human recombinant SOS1 (residue 564-1049)/KRAS G12C mutant protein-protein interaction at incubated for 25 degC for 60 mins by homogeneous time-resolved fluorescence (HTRF) method. On the technique in general: Time-resolved FRET reads energy transfer from a long-lived donor to a nearby acceptor.

Data set [11] in a line: Half life in ICR mouse at 10 mg/kg, po by LC-MS/MS analysis. The format is ADME, organism-based. The following applies: in vivo.
Data set [12] is described as follows: Tmax in ICR mouse at 10 mg/kg, po by LC-MS/MS analysis. The format is ADME, organism-based. The conditions noted are these: in vivo.
The nature of data set [13]: Cmax in ICR mouse at 10 mg/kg, po by LC-MS/MS analysis. The format is ADME, organism-based. Also noted: dose 10 mg/kg, route po. The conditions noted are these: in vivo.
Data set [14] is described as follows: AUC in ICR mouse at 10 mg/kg, po by LC-MS/MS analysis. The conditions noted are these: in vivo. Also noted: dose 10 mg/kg, route po. The format is ADME, organism-based.
Data set [15] can be described thus: MRT in ICR mouse at 10 mg/kg, po by LC-MS/MS analysis. The following applies: in vivo. The format is ADME, organism-based.
Data set [16] can be described thus: Elimination rate constant in ICR mouse at 10 mg/kg, po by LC-MS/MS analysis. The format is ADME, organism-based. The following applies: in vivo.
Data set [17] in a line: Metabolic stability in mouse liver microsomes assessed as half life in presence of NADPH by LC-MS/MS analysis. The format is ADME, Microsome.
Data set [18] is described as follows: Metabolic stability in mouse liver microsomes assessed as intrinsic clearance in presence of NADPH measured upto 60 mins by LC-MS/MS analysis. The format is ADME, Microsome. The following applies: read-out: CLH. (Liver microsomes are vesicles of endoplasmic reticulum, rich in cytochrome P450 enzymes.)
Data set [19] is described as follows: Metabolic stability in rat liver microsomes assessed as half life in presence of NADPH by LC-MS/MS analysis. The format is ADME, Microsome.
Data set [20] is described as follows: Metabolic stability in rat liver microsomes assessed as intrinsic clearance in presence of NADPH measured upto 60 mins by LC-MS/MS analysis. The format is ADME, Microsome. The following applies: read-out: CLH.
In another data set the test system is NCI-H358. Briefly: Antiproliferative activity against human NCI-H358 cells harboring SOS1/KRAS G12C mutant measured after 24 hrs by AlamarBlue based 3-D proliferation assay. The format is functional, cell-based.
The test system of data set [21] is MIA PaCa-2. Briefly: In vivo antitumor activity against human MIA PaCa-2 cells harboring KRAS G12C mutant xenografted in BALB/c mouse assessed as tumor growth inhibition at 50 mg/kg, po once a day measured for 16 days relative to control. The conditions noted are these: MIA PaCa-2, 384 h, time 16 day, read-out: TGI. The format is functional.
Data set [22] deals with MIA PaCa-2. Briefly: Antiproliferative activity against human MIA PaCa-2 cells assessed as cell viability measured after 72 hrs by MTT assay. The format is functional, cell-based. The conditions noted are these: MIA PaCa-2, 72 h.
Data set [23] concerns MIA PaCa-2. Briefly: In vivo antitumor activity against human MIA PaCa-2 cells harboring KRAS G12C mutant xenografted in BALB/c mouse assessed as reduction in tumor volume at 50 mg/kg, po once a day measured for 16 days relative to BI-3406. The format is functional. Also noted: scale not given: the % may be the effect or the level left. The following applies: time 16 day.

Chain of SOS1-KRAS (Q07889 whole entry, looked up, stated change not applied): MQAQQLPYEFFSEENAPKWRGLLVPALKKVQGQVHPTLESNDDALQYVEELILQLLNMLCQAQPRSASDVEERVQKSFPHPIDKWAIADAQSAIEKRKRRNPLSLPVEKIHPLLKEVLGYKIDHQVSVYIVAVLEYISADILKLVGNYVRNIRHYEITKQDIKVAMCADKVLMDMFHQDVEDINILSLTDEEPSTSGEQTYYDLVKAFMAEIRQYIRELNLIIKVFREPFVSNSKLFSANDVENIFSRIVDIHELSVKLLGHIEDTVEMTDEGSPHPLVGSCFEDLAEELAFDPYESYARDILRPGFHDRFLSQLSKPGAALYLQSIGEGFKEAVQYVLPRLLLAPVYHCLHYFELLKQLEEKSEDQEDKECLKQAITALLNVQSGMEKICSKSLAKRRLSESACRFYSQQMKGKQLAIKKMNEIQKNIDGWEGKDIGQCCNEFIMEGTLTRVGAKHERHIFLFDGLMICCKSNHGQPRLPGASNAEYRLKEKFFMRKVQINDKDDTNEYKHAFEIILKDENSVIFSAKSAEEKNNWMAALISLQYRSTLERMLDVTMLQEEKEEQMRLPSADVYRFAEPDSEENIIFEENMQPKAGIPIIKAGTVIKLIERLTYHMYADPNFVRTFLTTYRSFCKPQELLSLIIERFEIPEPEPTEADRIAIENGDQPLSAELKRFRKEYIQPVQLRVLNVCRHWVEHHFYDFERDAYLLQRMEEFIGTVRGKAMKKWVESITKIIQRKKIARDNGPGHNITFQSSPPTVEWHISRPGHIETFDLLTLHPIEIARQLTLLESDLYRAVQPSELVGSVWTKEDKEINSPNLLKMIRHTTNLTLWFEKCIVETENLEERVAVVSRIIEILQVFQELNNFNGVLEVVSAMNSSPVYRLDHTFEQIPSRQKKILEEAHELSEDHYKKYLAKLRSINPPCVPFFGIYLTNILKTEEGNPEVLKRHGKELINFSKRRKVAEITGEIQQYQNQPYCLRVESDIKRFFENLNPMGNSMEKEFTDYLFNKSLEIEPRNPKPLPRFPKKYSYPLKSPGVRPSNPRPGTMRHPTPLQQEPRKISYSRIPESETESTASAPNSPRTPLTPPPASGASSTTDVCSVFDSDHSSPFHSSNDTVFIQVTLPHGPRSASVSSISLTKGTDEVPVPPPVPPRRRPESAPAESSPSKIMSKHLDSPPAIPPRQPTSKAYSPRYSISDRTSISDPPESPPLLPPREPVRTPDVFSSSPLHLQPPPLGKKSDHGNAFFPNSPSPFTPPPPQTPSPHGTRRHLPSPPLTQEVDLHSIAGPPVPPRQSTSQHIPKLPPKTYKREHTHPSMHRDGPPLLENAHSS

In general, pIC50 refers to the IC50 on a negative log10 scale, so that one unit is a factor of ten. By Tmax is commonly meant the time from dosing to the highest level. In general, Cmax refers to the maximum level reached in the sampled fluid or tissue. For orientation: AUC means the area under the concentration-time curve, a measure of exposure. Broadly, the MRT is the average time that molecules of a dose stay in the body. `Cc1nc(N[C@H](C)c2cccc(C(F)F)c2F)c2cc3c(cc2n1)OC[C@H]1CN(C(=O)NC2CC2)CCN31`: in [1], the pIC50 was 8.10. For the same compound, the Activity result in [2] is recorded as “Non-Toxic”; in the data set on MIA PaCa-2 [3], 47%; in [4], “Non-Toxic”. In data set [5], this compound came in with a t1/2 of 12.6 h. Also, the Tmax in data set [6] came to 6 h. The concentration in data set [7] peaked (Cmax) at 557 ng/mL. The AUC in [8] is 3490 ng·h/mL. Further, the MRT in data set [9] was 4.36 h. The same compound came in with a Kel in [10] of 0.14 h⁻¹.

The half-life is the time in which the quantity being followed falls by half. With `CC(=O)N1CCN2c3cc4c(N[C@H](C)c5cccc(C(F)(F)C(C)(C)O)c5F)nc(C)nc4cc3OC[C@H]2C1`, the values for the pIC50 (at SOS1-KRAS; in data set [1]) were 7.90 and 8.00, respectively. In addition, the half-life in [11] was 3.24 h. In data set [12], the Tmax amounted to 0.625 h. In data set [13], the highest level (Cmax) was 5.03 ng/mL. In data set [14], this compound came in with an AUC of 7.7 ng·h/mL. The compound further registered an MRT in [15] of 1 h. Besides, the k el in data set [16] was 3.89e-05 s⁻¹.

Regarding `COc1cc2nc(C)nc(N[C@H](C)c3cc(N)cc(C(F)(F)F)c3)c2cc1O[C@H]1CCOC1`, the pIC50 in data set [1] was 7.51. In addition, the half-life in [11] is 1.3 h; in data set [17] it was 0.18 h; in [5], 4.48 h; in data set [19], 0.602 h. Also, the Tmax in [12] was determined as 0.5 h; in data set [6], 0.9 h. Also, the Cmax in data set [13] came out at 241 ng/mL; in data set [7], 1050 ng/mL. The area under the curve (AUC) worked out at 550 ng·h/mL in data set [14] and 4680 ng·h/mL in data set [8]. In addition, the MRT in data set [15] is 1.7 h; in data set [9] it was 2.98 h. In addition, the values for the k el in data set [16] and in data set [10] were 0.000147 s⁻¹ and 5.83e-05 s⁻¹, respectively. In addition, the Activity result is listed as “Non-Toxic” in [2], 42% in the data set on MIA PaCa-2 [3] and “Non-Toxic” in data set [4]. Moreover, the CLint scaled amounted to 504 mL/min/kg in [18] and 69.5 mL/min/kg in data set [20].

For the compound `Cc1nc(N[C@H](C)c2cccc(C(F)F)c2F)c2cc3c(cc2n1)OC[C@H]1CN(C(=O)[C@@H]2C[C@H]2F)CCN31`, the pIC50 in [1] was 8.22. In addition, the results for the Activity result (in [2]; in the data set with MIA PaCa-2 [3]; in data set [4]) were “Non-Toxic”, 49% and “Non-Toxic”, respectively. This compound also had a half-life in data set [5] of 6.67 h. In addition, the Tmax in data set [6] stood at 5.67 h. The same compound came in with a Cmax in data set [7] of 651 ng/mL. In data set [8], this compound came in with an AUC of 4010 ng·h/mL. The same compound showed an MRT in data set [9] of 4.08 h. In data set [10], this compound showed a k el of 2.78e-05 s⁻¹.

On to `CC(=O)N1CCN2c3cc4c(N[C@H](C)c5cc(N)cc(C(F)(F)F)c5)nc(C)nc4cc3OC[C@H]2C1`, for which the pIC50 at SOS1-KRAS was 8.37; in [1], 8.33. For the same compound, in the data set on NCI-H358, the result was Active. The compound also showed a half-life in data set [11] of 1.49 h. Besides, the Tmax in data set [12] was 1 h. The Cmax in data set [13] stood at 8.89 ng/mL. The compound also came in with an AUC in data set [14] of 53.5 ng·h/mL. This compound also showed an MRT in data set [15] of 10.1 h. The compound further showed a k el in data set [16] of 0.000142 s⁻¹.

For `CC(=O)N1CCN2c3cc4c(N[C@H](C)c5cccc(C(F)F)c5F)nc(C)nc4cc3OC[C@H]2C1`, the pIC50 was 8.20 on SOS1-KRAS and 8.62 in data set [1]. In the data set with NCI-H358, the result was Active. Also, the half-life is 1.87 h in [11] and 2.14 h in [5]. In addition, the Tmax in data set [12] came out at 0.33 h; in [6], 0.25 h. The Cmax in data set [13] came to 63.4 ng/mL; in data set [7] it was 270 ng/mL. The AUC in data set [14] stood at 148 ng·h/mL; in data set [8], 601 ng·h/mL. In addition, the MRT in data set [15] worked out at 1.9 h; in [9], 1.93 h. For the same compound, the k el in data set [16] was 0.000103 s⁻¹; in data set [10], 0.000119 s⁻¹. Moreover, in the data set on MIA PaCa-2 [21], the inhibition in vivo at 50 mg/kg was 42%. The Activity entry in data set [2] is on record as “Non-Toxic”.

Turning to `CC(=O)N1CCN2c3cc4c(N[C@H](C)c5cccc(C(F)(F)CO)c5F)nc(C)nc4cc3OC[C@H]2C1`, the pIC50 on SOS1-KRAS was 8.57; in data set [1] it was 8.85. Besides, the outcome in the data set with NCI-H358 was Active.

In the case of `Cc1nc(N[C@H](C)c2cccc(C(F)F)c2F)c2cc3c(cc2n1)OC[C@H]1CN(C(=O)[C@H]2CCOC2)CCN31`, the pIC50 is 8.30 in [1] and 6.75 with MIA PaCa-2 [22]. Besides, the Activity result in data set [2] was “Non-Toxic”; in the data set on MIA PaCa-2 [23], 71%; with MIA PaCa-2 [3], 49%; in data set [4] it was “Non-Toxic”. For the same compound, the results for the half-life in [17] and in [19] were 0.437 h and 1.12 h, respectively. Moreover, the figures for the CLint scaled in data set [18] and in data set [20] were 209 mL/min/kg and 37.2 mL/min/kg, respectively. The compound also registered a t1/2 in [5] of 11.4 h. The Tmax in data set [6] was 3.67 h. Also, in data set [7], the highest level (Cmax) was 1550 ng/mL. Moreover, in data set [8], the AUC stood at 9900 ng·h/mL. The MRT in data set [9] turned out to be 4.19 h. In [10], this compound had a Kel of 0.25 h⁻¹.
